From patent publication US12139487B2, “Compounds and uses thereof” (Foghorn Therapeutics Inc., priority 2022, dated 2024)

Key:
BRM = biological target: T1, BRM (Homo sapiens, UniProt P51531); assay: ATPase catalytic activity assay (ADP-Glo), BRM; type: biochemical; details: Table 10; for Ratio (BRG1 IC50 (μM) divided by BRM IC50 (μM)): ATPase assay, selectivity BRG1/BRM; for IC50: ATPase catalytic activity assay (ADP-Glo)
T1 construct: made in house; host or cells: High Five insect cells
Summary of the method: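 Reaction holds 30 nM BRM, 20 nM salmon sperm DNA and 400 μM ATP in 20 mM Tris pH 8, 20 mM MgCl2, 50 mM NaCl, 0.1% Tween-20, 1 mM DTT. Incubated 1 h at room temperature. ADP formed is detected by ADP-Glo luminescence.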

BRG-1 = biological target: T2, BRG-1 (Homo sapiens, UniProt P51532); assay: ATPase catalytic activity assay (ADP-Glo), BRG-1; type: biochemical; details: Table 10, read-out: BRG1 IC50
T2 construct: made in house; host or cells: High Five insect cells
T2 sequence (P51532 whole entry): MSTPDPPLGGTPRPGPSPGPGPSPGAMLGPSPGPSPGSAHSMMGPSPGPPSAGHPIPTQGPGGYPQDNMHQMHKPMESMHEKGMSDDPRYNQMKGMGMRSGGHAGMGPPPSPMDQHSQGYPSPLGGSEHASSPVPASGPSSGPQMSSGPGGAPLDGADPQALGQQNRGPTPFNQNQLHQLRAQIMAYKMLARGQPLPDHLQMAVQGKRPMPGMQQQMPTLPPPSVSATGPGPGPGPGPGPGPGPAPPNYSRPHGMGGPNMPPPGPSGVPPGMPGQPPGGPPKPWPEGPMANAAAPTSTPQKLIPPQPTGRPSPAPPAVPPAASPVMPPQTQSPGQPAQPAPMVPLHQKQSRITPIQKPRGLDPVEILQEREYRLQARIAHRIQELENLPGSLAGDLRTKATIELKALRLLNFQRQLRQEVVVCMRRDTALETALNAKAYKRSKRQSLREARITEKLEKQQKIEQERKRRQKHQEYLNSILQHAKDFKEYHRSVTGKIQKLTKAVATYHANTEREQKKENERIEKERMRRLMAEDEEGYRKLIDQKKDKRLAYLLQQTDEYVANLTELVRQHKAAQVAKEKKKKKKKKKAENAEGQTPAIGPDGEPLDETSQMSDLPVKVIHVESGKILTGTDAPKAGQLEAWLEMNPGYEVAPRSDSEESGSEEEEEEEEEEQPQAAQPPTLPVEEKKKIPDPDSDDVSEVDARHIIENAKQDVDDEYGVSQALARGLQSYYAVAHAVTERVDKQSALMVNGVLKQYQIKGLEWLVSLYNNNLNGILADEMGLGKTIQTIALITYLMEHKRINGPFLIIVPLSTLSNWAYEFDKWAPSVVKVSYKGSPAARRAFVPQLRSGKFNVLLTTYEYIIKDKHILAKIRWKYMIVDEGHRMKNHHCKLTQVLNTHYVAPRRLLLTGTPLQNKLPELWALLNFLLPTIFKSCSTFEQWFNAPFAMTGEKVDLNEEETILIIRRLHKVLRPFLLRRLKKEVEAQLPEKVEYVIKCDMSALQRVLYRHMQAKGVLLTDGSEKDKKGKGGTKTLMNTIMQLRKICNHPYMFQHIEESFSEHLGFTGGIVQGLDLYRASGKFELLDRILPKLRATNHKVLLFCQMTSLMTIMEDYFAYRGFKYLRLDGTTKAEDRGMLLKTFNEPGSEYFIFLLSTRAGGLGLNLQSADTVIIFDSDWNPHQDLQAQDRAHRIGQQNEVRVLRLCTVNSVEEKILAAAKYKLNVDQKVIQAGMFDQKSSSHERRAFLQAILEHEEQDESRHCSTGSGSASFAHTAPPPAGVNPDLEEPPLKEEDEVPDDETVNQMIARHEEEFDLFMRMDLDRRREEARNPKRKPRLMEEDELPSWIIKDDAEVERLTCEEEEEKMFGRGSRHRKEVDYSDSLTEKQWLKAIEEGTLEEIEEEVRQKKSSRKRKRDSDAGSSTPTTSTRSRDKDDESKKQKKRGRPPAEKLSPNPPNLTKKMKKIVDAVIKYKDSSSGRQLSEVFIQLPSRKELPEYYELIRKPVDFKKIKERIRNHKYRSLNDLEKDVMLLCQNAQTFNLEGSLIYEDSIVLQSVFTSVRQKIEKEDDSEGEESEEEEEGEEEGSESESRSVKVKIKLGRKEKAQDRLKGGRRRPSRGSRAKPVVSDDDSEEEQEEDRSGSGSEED
Summary of the method: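 Biochemical ADP-Glo assay, BRG-1. Post-reaction: ATP depletion reagent, 40 min RT; ADP→ATP conversion/detection reagent, 60 min RT; luminescence read on plate luminometer.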

T1 sequence (P51531 whole entry): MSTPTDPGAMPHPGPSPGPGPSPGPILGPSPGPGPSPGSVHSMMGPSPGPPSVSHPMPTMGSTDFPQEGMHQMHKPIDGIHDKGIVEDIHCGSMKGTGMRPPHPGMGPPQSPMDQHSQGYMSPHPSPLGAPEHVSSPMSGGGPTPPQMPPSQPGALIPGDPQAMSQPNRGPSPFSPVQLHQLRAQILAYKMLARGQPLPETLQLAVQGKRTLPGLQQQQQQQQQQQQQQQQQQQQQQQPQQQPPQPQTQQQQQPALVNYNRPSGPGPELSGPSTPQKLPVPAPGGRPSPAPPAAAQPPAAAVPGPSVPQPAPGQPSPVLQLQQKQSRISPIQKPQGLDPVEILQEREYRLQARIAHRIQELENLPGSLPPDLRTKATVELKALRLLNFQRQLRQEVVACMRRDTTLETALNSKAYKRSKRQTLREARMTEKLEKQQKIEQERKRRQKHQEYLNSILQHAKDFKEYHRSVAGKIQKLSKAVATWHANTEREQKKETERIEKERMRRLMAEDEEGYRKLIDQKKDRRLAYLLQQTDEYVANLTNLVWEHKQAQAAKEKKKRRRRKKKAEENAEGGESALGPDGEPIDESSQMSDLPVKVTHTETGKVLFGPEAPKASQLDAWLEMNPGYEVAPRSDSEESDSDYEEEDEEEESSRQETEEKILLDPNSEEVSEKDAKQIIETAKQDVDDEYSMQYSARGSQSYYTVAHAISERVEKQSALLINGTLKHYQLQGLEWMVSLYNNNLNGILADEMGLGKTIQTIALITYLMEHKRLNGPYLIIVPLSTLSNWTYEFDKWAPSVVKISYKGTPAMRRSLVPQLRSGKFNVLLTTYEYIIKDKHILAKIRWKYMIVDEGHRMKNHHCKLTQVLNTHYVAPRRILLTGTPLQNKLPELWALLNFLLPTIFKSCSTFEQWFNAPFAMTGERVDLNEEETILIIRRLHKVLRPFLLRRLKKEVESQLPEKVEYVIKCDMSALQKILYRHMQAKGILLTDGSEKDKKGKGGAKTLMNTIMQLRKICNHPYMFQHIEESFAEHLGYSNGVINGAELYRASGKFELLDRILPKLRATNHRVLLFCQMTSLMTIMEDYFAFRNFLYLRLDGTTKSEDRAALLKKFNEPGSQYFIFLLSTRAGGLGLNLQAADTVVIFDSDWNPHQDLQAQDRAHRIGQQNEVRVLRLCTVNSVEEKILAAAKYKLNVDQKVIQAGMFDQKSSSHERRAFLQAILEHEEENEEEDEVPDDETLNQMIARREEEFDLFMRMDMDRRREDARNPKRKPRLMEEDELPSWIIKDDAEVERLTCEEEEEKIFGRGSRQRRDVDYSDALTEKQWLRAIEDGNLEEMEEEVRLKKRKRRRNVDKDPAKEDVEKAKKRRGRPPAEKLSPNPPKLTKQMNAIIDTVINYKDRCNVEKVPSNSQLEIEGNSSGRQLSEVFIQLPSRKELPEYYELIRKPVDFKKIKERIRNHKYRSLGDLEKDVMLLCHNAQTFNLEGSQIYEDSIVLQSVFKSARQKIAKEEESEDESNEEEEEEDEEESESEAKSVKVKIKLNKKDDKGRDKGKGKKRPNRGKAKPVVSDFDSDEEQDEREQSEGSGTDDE

| SMILES | Ratio (BRG1 IC50 (μM) divided by BRM IC50 (μM)) (BRM) | IC50 (BRM) | IC50 (BRG-1) |
| --- | --- | --- | --- |
| C[C@@H]1CN(c2cccc(-c3ccc4cnc(CNC(=O)c5cc(C(F)F)c6c(c5)S(=O)(=O)[C@@H](F)CCO6)cc4n3)n2)C[C@H](C)O1 [Compound 64] | 11.59 | 0.0026 µM | 0.0298 µM |
| O=C(NCc1cc2nc(N3CCOc4c(N5CCC5)ccnc43)ccc2cn1)c1cc(F)c2c(c1)S(=O)(=O)[C@@H](F)CCO2 [Compound 65] | 21.94 | 0.0026 µM | 0.0462 µM |
| O=C(NCc1cc2nc(N3CCOc4cc(N5C[C@@H](F)[C@H](F)C5)cnc43)ccc2cn1)c1cc(F)c2c(c1)S(=O)(=O)[C@@H](F)CCO2 [Compound 66] | 24.64 | 0.0026 µM | 0.0785 µM |
| CO[C@H]1CN(c2cccc(-c3ccc4cnc(CNC(=O)c5cc(F)c6c(c5)S(=O)(=O)[C@@H](F)CCO6)cc4n3)n2)C[C@@H]1C [Compound 67] | 17.37 | 0.0027 µM | 0.0462 µM |
| Cc1cc2c(-c3ccc4cnc(CNC(=O)c5cc(F)c6c(c5)S(=O)(=O)[C@@H](F)CCO6)cc4n3)ccc(F)c2n1C [Compound 68] | 13.58 | 0.0027 µM | 0.0362 µM |
| C[C@H]1[C@@H](F)CN1c1cnc2c(c1)OCCN2c1ccc2cnc(CNC(=O)c3cc(F)c4c(c3)S(=O)(=O)[C@@H](F)CCO4)cc2n1 [Compound 69] | 13.99 | 0.0027 µM | 0.0375 µM |
| O=C(NCc1cc2nc(N3CCOc4cc(C5(C(F)F)CC5)cnc43)ccc2cn1)c1cc(F)c2c(c1)S(=O)(=O)[C@@H](F)CCO2 [Compound 70] | 12.79 | 0.0027 µM | 0.0396 µM |
| COc1cnc2c(c1)OCCN2c1ccc2cnc(CNC(=O)c3cc(F)c4c(c3)S(=O)(=O)[C@@H](F)CCO4)cc2n1 [Compound 71] | 17.64 | 0.0027 µM | 0.0483 µM |
| O=C(NCc1cc2nc(N3CCOc4ccc(C5CC5)nc43)ccc2cn1)c1cc(F)c2c(c1)S(=O)(=O)[C@@H](F)COC2 [Compound 72] | 21.76 | 0.0028 µM | 0.0666 µM |
| Cc1ccc(-c2ccc3cnc(CNC(=O)c4cc(F)c5c(c4)S(=O)(=O)[C@@H](F)COC5)cc3n2)c(OC(F)F)n1 [Compound 73] | 20.62 | 0.0028 µM | 0.0571 µM |
| O=C(NCc1cc2nc(N3CCOc4cc([C@@H]5CC5(F)F)cnc43)ccc2cn1)c1cc(F)c2c(c1)S(=O)(=O)[C@@H](F)COC2 [Compound 74] | 9.59 | 0.0028 µM | 0.0267 µM |
| COc1nc(C(C)(F)F)ccc1-c1ccc2cnc(CNC(=O)c3cc(F)c4c(c3)S(=O)(=O)[C@@H](F)COC4)cc2n1 [Compound 75] | 26.00 | 0.0028 µM | 0.0801 µM |
| O=C(NCc1cc2nc(N3CCCc4c3ccnc4OC3CC3)ccc2cn1)c1cc(F)c2c(c1)S(=O)(=O)[C@@H](F)CCO2 [Compound 76] | 16.02 | 0.0028 µM | 0.0451 µM |
| O=C(NCc1cc2cc(-c3cncc(C4CC4)n3)ccc2cn1)c1cc(F)c2c(c1)S(=O)(=O)[C@@H](F)COC2 [Compound 77] | 23.82 | 0.0028 µM | 0.067 µM |
| C[C@@H]1CN(c2cccc(-c3ccc4cnc(CNC(=O)c5cc(Cl)c6c(c5)S(=O)(=O)[C@@H](F)COC6)cc4n3)n2)C[C@H](C)O1 [Compound 79] | 12.12 | 0.003 µM | 0.0344 µM |
| C[C@@H]1[C@@H](F)CN1c1cnc2c(c1)OCCN2c1ccc2cnc(CNC(=O)c3cc(F)c4c(c3)S(=O)(=O)[C@@H](F)CCO4)cc2n1 [Compound 80] | 16.24 | 0.003 µM | 0.0484 µM |
| COc1cc2c(nc1C(F)F)N(c1ccc3cnc(CNC(=O)c4cc(F)c5c(c4)S(=O)(=O)[C@@H](F)CCO5)cc3n1)CCO2 [Compound 81] | 14.31 | 0.003 µM | 0.0467 µM |
| CCc1cnc2c(c1)OCCN2c1ccc2cnc(CNC(=O)c3cc(F)c4c(c3)S(=O)(=O)[C@@H](F)CCO4)cc2n1 [Compound 82] | 22.96 | 0.0031 µM | 0.068 µM |
| Cc1cnc2c(c1)OCCN2c1ccc2cnc(CNC(=O)c3ccc4c(c3)S(=O)(=O)[C@@H](F)CCO4)cc2n1 [Compound 83] | 19.36 | 0.0031 µM | 0.0496 µM |
| [2H]C1([2H])Oc2c(F)cc(C(=O)NCc3cc4nc(-c5ccc(C(F)F)nc5OC)ccc4cn3)cc2S(=O)(=O)[C@@]([2H])(F)C1([2H])[2H] [Compound 84] | 25.97 | 0.0031 µM | 0.0957 µM |

| SMILES | Ratio (BRG1 IC50 (μM) divided by BRM IC50 (μM)) (BRM) | IC50 (BRM) | IC50 (BRG-1) |
| --- | --- | --- | --- |
| O=C(NCc1cc2nc(-c3ccc(OC(F)F)c(C4CC4)n3)ccc2cn1)c1cc(F)c2c(c1)S(=O)(=O)[C@@H](F)COC2 [Compound 85] | 20.37 | 0.0031 µM | 0.0699 µM |
| O=C(NCc1cc2nc(N3CCOc4ccc(N5CC[C@@H](F)C5)nc43)ccc2cn1)c1cc(F)c2c(c1)S(=O)(=O)[C@@H](F)CCO2 [Compound 86] | 17.70 | 0.0032 µM | 0.0512 µM |
| O=C(NCc1cc2nc(N3CCOc4cc([C@@H]5CC5(F)F)cnc43)ccc2cn1)c1cc(F)c2c(c1)S(=O)(=O)[C@@H](F)CCO2 [Compound 87] | 20.66 | 0.0032 µM | 0.0783 µM |
| O=C(NCc1cc2nc(N3CCOc4ccc([C@H]5C[C@H]5F)nc43)ccc2cn1)c1cc(F)c2c(c1)S(=O)(=O)[C@@H](F)COC2 [Compound 88] | 21.33 | 0.0032 µM | 0.0889 µM |
| O=C(NCc1cc2nc(-c3ccc(OC(F)F)c(C4CC4)n3)ccc2cn1)c1cc(F)c2c(c1)S(=O)(=O)[C@@H](F)CCO2 [Compound 89] | 28.75 | 0.0032 µM | 0.132 µM |
| [2H]C1([2H])Oc2c(F)cc(C(=O)NCc3cc4nc(N5CCOc6cc(C7CC7)cnc65)ccc4cn3)cc2S(=O)(=O)[C@]([2H])(F)C1([2H])[2H] [Compound 90] | 15.80 | 0.0032 µM | 0.0512 µM |
| CCOc1cc(C(F)F)nc2c1OCCN2c1ccc2cnc(CNC(=O)c3cc(F)c4c(c3)S(=O)(=O)[C@@H](F)CCO4)cc2n1 [Compound 91] | 14.38 | 0.0032 µM | 0.0467 µM |
| O=C(NCc1cc2nc(N3CCOc4ccc(C5CC5)nc43)ccc2cn1)c1ccc2c(c1)S(=O)(=O)[C@@H](F)CCO2 [Compound 96] | 22.86 | 0.0034 µM | 0.0864 µM |
| CO[C@H]1CN(c2cccc(-c3ccc4cnc(CNC(=O)c5cc(F)c6c(c5)S(=O)(=O)[C@@H](F)CCO6)cc4n3)n2)C[C@@H]1F [Compound 97] | 17.66 | 0.0034 µM | 0.0657 µM |
| COc1nc([C@H](F)CF)ccc1-c1ccc2cnc(CNC(=O)c3cc(F)c4c(c3)S(=O)(=O)[C@@H](F)CCO4)cc2n1 [Compound 98] | 31.77 | 0.0035 µM | 0.123 µM |
| CCN(CC)c1cnc2c(c1)OCCN2c1ccc2cnc(CNC(=O)c3cc(F)c4c(c3)S(=O)(=O)[C@@H](F)CCO4)cc2n1 [Compound 99] | 12.19 | 0.0035 µM | 0.0427 µM |
| Cc1cc(C(=O)NCc2cc3nc(-c4cccc(N5C[C@@H](C)O[C@@H](C)C5)n4)ccc3cn2)cc2c1OCC[C@H](F)S2(=O)=O [Compound 100] | 13.01 | 0.0035 µM | 0.0448 µM |
| O=C(NCc1cc2cc(-c3cncc(N4CCCC4)n3)ccc2cn1)c1cc(F)c2c(c1)S(=O)(=O)[C@@H](F)CCO2 [Compound 101] | 23.62 | 0.0035 µM | 0.0834 µM |
| O=C(NCc1cc2nc(N3CCOc4cc(F)cnc43)ccc2cn1)c1cc(F)c2c(c1)S(=O)(=O)[C@@H](F)CCO2 [Compound 102] | 26.75 | 0.0036 µM | 0.0954 µM |
| [2H]C([2H])([2H])Oc1nc(C(F)F)ccc1-c1ccc2cnc(CNC(=O)c3cc(F)c4c(c3)S(=O)(=O)[C@@H](F)COC4)cc2n1 [Compound 103] | 12.05 | 0.0036 µM | 0.0434 µM |
| CO[C@@H]1CN(c2cccc(-c3ccc4cnc(CNC(=O)c5cc(F)c6c(c5)S(=O)(=O)[C@@H](F)CCO6)cc4n3)n2)C[C@H]1C [Compound 104] | 10.21 | 0.0036 µM | 0.0427 µM |
| CN(CC(F)F)c1cnc2c(c1)OCCN2c1ccc2cnc(CNC(=O)c3cc(F)c4c(c3)S(=O)(=O)[C@@H](F)CCO4)cc2n1 [Compound 105] | 9.68 | 0.0037 µM | 0.0367 µM |
| CCOCc1ccnc2c1OCCN2c1ccc2cnc(CNC(=O)c3cc(F)c4c(c3)S(=O)(=O)[C@@H](F)CCO4)cc2n1 [Compound 108] | 16.69 | 0.0039 µM | 0.0644 µM |
| O=C(NCc1cc2nc(N3CCOc4cc(N5CC[C@H](F)[C@@H](F)C5)cnc43)ccc2cn1)c1cc(F)c2c(c1)S(=O)(=O)[C@@H](F)CCO2 [Compound 109] | 17.52 | 0.0039 µM | 0.0872 µM |
